From patent US20260262643A1, “HERBICIDAL BENZOXAZINES” (FMC CORPORATION, priority 2022, published 2026)

Columns and labels:
oat, wild [1] = experiment: Test C postemergence; format: in vivo, Avena fatua; conditions: 10 days, 0 to 100 scale (0 no effect, 100 complete control)
Summary of the method: (§1)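 Test material, in non-phytotoxic solvent with surfactant, was sprayed on the soil directly after seeding (preemergence) or on young plants of 2–10 cm with one to two leaves (postemergence). Greenhouse, 10 days; 0–100 visual control scale.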

ryegrass, Italian [2] = experiment: Test C postemergence; format: in vivo, Lolium multiflorum; conditions: 10 days, 0 to 100 scale (0 no effect, 100 complete control)
Summary of the method: as §1

corn [3] = experiment: Test C preemergence; format: in vivo, Zea mays
Summary of the method: as §1

oat, wild [4] = experiment: Test C preemergence; format: in vivo, Avena fatua
Summary of the method: as §1

kochia [5] = experiment: Test C postemergence; format: in vivo, Bassia scoparia; conditions: 10 days, 0 to 100 scale (0 no effect, 100 complete control)
Summary of the method: as §1

galium = experiment: Test C postemergence; format: in vivo, Galium aparine; conditions: 10 days, 0 to 100 scale (0 no effect, 100 complete control)
Summary of the method: as §1

pigweed, palmer [6] = experiment: Test C preemergence; format: in vivo, Amaranthus palmeri
Summary of the method: as §1

ragweed [7] = experiment: Test C postemergence; format: in vivo, Ambrosia artemisiifolia; conditions: 10 days, 0 to 100 scale (0 no effect, 100 complete control)
Summary of the method: as §1

corn [8] = experiment: Test C postemergence; format: in vivo, Zea mays; conditions: 10 days, 0 to 100 scale (0 no effect, 100 complete control)
Summary of the method: as §1

blackgrass [9] = experiment: Test C preemergence; format: in vivo, Alopecurus myosuroides
Summary of the method: as §1

soybean [10] = experiment: Test C postemergence; format: in vivo, Glycine max; conditions: 10 days, 0 to 100 scale (0 no effect, 100 complete control)
Summary of the method: as §1

green foxtail [11] = experiment: Test C postemergence; format: in vivo, Setaria viridis; conditions: 10 days, 0 to 100 scale (0 no effect, 100 complete control)
Summary of the method: as §1

ryegrass, Italian [12] = experiment: Test C preemergence; format: in vivo, Lolium multiflorum
Summary of the method: as §1

sedge, umbrella = experiment: Test D flooded paddy test; format: in vivo, Cyperus difformis; conditions: 250 g ai/ha, applied to paddy water, visual rating after 13 to 14 days, scale 0 to 100 (0 no effect, 100 complete control)
Summary of the method: (§2)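 Seedlings reached the 2-leaf stage, then pots were flooded to 3 cm over the soil surface. Compound was applied into the water, depth was maintained, and plants stayed in the greenhouse 13 to 14 days before visual scoring (0–100) relative to controls.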

ducksalad = experiment: Test D flooded paddy test; format: in vivo, Heteranthera limosa; conditions: 250 g ai/ha, applied to paddy water, visual rating after 13 to 14 days, scale 0 to 100 (0 no effect, 100 complete control)
Summary of the method: as §2

blackgrass [13] = experiment: Test C postemergence; format: in vivo, Alopecurus myosuroides; conditions: 10 days, 0 to 100 scale (0 no effect, 100 complete control)
Summary of the method: as §1

barnyardgrass [14] = experiment: Test C postemergence; format: in vivo, Echinochloa crusgalli; conditions: 10 days, 0 to 100 scale (0 no effect, 100 complete control)
Summary of the method: as §1

horseweed = experiment: Test C postemergence; format: in vivo, Erigeron canadensis; conditions: 10 days, 0 to 100 scale (0 no effect, 100 complete control)
Summary of the method: as §1

wheat [15] = experiment: Test C postemergence; format: in vivo, Triticum aestivum; conditions: 10 days, 0 to 100 scale (0 no effect, 100 complete control)
Summary of the method: as §1

ragweed [16] = experiment: Test C preemergence; format: in vivo, Ambrosia artemisiifolia
Summary of the method: as §1

green foxtail [17] = experiment: Test C preemergence; format: in vivo, Setaria viridis
Summary of the method: as §1

wheat [18] = experiment: Test C preemergence; format: in vivo, Triticum aestivum
Summary of the method: as §1

barnyardgrass [19] = experiment: Test D flooded paddy test; format: in vivo, Echinochloa crus-galli; conditions: 250 g ai/ha, applied to paddy water, visual rating after 13 to 14 days, scale 0 to 100 (0 no effect, 100 complete control)
Summary of the method: as §2

soybean [20] = experiment: Test C preemergence; format: in vivo, Glycine max
Summary of the method: as §1

rice = experiment: Test D flooded paddy test; format: in vivo, Oryza sativa; conditions: 250 g ai/ha, applied to paddy water, visual rating after 13 to 14 days, scale 0 to 100 (0 no effect, 100 complete control)
Summary of the method: as §2

pigweed, palmer [21] = experiment: Test C postemergence; format: in vivo, Amaranthus palmeri; conditions: 10 days, 0 to 100 scale (0 no effect, 100 complete control)
Summary of the method: as §1

barnyardgrass [22] = experiment: Test C preemergence; format: in vivo, Echinochloa crusgalli; conditions: Preemergence, 125 g ai/ha; 0 to 100 scale, 0 no effect, 100 complete control
Summary of the method: as §1

kochia [23] = experiment: Test C preemergence; format: in vivo, Bassia scoparia
Summary of the method: as §1

[24] = 500 g ai/ha, preemergence, 0 to 100 scale (0 no effect, 100 complete control)
[25] = Preemergence, 125 g ai/ha, 0 to 100 scale, 0 no effect, 100 complete control

SMILES: CSc1ccc(-n2cnc(C(C)C)n2)cc1C(=O)N1C[C@H](C)Oc2c(Cl)cccc21 [Compound 391]
- Plant response rating, Oat, Wild (oat, wild [1]; 500 g ai/ha, postemergence): 80
- Plant response rating, Oat, Wild (oat, wild [1]; Postemergence, 125 g ai/ha): 30
- Plant response rating, Ryegrass, Italian (ryegrass, Italian [2]; 500 g ai/ha, postemergence): 100
- Plant response rating, Ryegrass, Italian (ryegrass, Italian [2]; Postemergence, 125 g ai/ha): 50
- Corn plant response rating (corn [3]; [24]): 20
- Plant response rating, Corn (corn [3]; [25]): 20
- Oat, Wild plant response rating (oat, wild [4]; [24]): 80
- Plant response rating, Oat, Wild (oat, wild [4]; [25]): 30
- Plant response rating, Kochia (kochia [5]; 500 g ai/ha, postemergence): 100
- Plant response rating, Kochia (kochia [5]; Postemergence, 125 g ai/ha): 100
- Plant response rating, Galium (galium; 500 g ai/ha, postemergence): 100
- Plant response rating, Galium (galium; Postemergence, 125 g ai/ha): 100
- Pigweed, Palmer plant response rating (pigweed, palmer [6]; [24]): 100
- Plant response rating, Pigweed, Palmer (pigweed, palmer [6]; [25]): 100
- Plant response rating, Ragweed (ragweed [7]; 500 g ai/ha, postemergence): 90
- Plant response rating, Ragweed (ragweed [7]; Postemergence, 125 g ai/ha): 60
- Plant response rating, Corn (corn [8]; 500 g ai/ha, postemergence): 60
- Plant response rating, Corn (corn [8]; Postemergence, 125 g ai/ha): 60
- Blackgrass plant response rating (blackgrass [9]; [24]): 80
- Plant response rating, Blackgrass (blackgrass [9]; [25]): 50
- Plant response rating, Soybean (soybean [10]; 500 g ai/ha, postemergence): 100
- Plant response rating, Soybean (soybean [10]; Postemergence, 125 g ai/ha): 100
- Plant response rating, Foxtail, Green (green foxtail [11]; 500 g ai/ha, postemergence): 80
- Plant response rating, Foxtail, Green (green foxtail [11]; Postemergence, 125 g ai/ha): 70
- Ryegrass, Italian plant response rating (ryegrass, Italian [12]; [24]): 90
- Plant response rating, Ryegrass, Italian (ryegrass, Italian [12]; [25]): 20
- Plant response rating, Sedge, Umbrella (Flood) (sedge, umbrella): 45
- Plant response rating, Ducksalad (Flood) (ducksalad): 35
- Plant response rating, Blackgrass (blackgrass [13]; 500 g ai/ha, postemergence): 80
- Plant response rating, Blackgrass (blackgrass [13]; Postemergence, 125 g ai/ha): 60
- Plant response rating, Barnyardgrass (barnyardgrass [14]; 500 g ai/ha, postemergence): 60
- Plant response rating, Barnyardgrass (barnyardgrass [14]; Postemergence, 125 g ai/ha): 40
- Plant response rating, Horseweed (horseweed; 500 g ai/ha, postemergence): 60
- Plant response rating, Horseweed (horseweed; Postemergence, 125 g ai/ha): 0
- Plant response rating, Wheat (wheat [15]; 500 g ai/ha, postemergence): 40
- Plant response rating, Wheat (wheat [15]; Postemergence, 125 g ai/ha): 30
- Ragweed plant response rating (ragweed [16]; [24]): 60
- Plant response rating, Ragweed (ragweed [16]; [25]): 10
- Foxtail, Green plant response rating (green foxtail [17]; [24]): 100
- Plant response rating, Foxtail, Green (green foxtail [17]; [25]): 100
- Wheat plant response rating (wheat [18]; [24]): 30
- Plant response rating, Wheat (wheat [18]; [25]): 0
- Plant response rating, Barnyardgrass (Flood) (barnyardgrass [19]): 10
- Soybean plant response rating (soybean [20]; [24]): 90
- Plant response rating, Soybean (soybean [20]; [25]): 50
- Plant response rating, Rice (Flood) (rice): 0
- Plant response rating, Pigweed, Palmer (pigweed, palmer [21]; 500 g ai/ha, postemergence): 100
- Plant response rating, Pigweed, Palmer (pigweed, palmer [21]; Postemergence, 125 g ai/ha): 90
- Plant response rating, Barnyardgrass (barnyardgrass [22]): 60
- Kochia plant response rating (kochia [23]; [24]): 100
- Plant response rating, Kochia (kochia [23]; [25]): 90
